Assay results: CN113730373A, “一种递送姜黄素的zein-AOS复合纳米颗粒及其制备方法” (Zhejiang Ocean University ZJOU, priority 2021, dated 2021)

Columns and labels:
[1] = DSC of thermal behaviour of nanoparticles; type: physicochemical
[2] = Curcumin release in simulated gastric fluid (SGF); type: physicochemical; conditions: pH 2.0, pepsin, 37℃, 100 rpm, sampling to 90 min

characteristic decomposition peak of curcumin [1]: 179.2 °C
curcumin release rate [2]: 60.5%
SMILES: COc1cc(/C=C/C(=O)CC(=O)/C=C/c2ccc(O)c(OC)c2)ccc1O [Cur, 姜黄素]
